# Assay results reported in paper PMC9481570, “A small molecule antagonist of SMN disrupts the interaction between SMN and RNAP II” (Nature Communications, 2022).
# What was measured:
# ZCWPW2 (CW) = target: T1, ZCWPW2 (CW) (Homo sapiens, UniProt Q504Y3); test: ITC binding to CW domain of ZCWPW2; details: Fig. 1c
# T1 construct: ZCWPW2 (aa 21–78); His (N, cleaved yes); made in house; host or cells: E. coli BL21 (DE3) Codon plus RIL
# Text: (§1) The coding DNA fragments of following Tudor domains were cloned into pET28-MHL vector: SMN (aa 82–147), UHRF1 (aa 126–285), SMNDC1 (aa 53–130), TDRD3 (aa 554–611), SND1 (aa 650–910), TDRD2 (aa 327–420), FXR1 (aa 2–132), PHF1 (aa 28–87), SGF29 (aa 115–293), JMJD2A (aa 897–1101), 53BP1 (aa 1483–1606), SETDB1 (aa 190–410), LBR (aa 1–67), ZGPAT (aa 120–271). The coding regions of chromodomain of CBX7 (aa 8–62), PWWP domain of DNMT3A (aa 275–417), WD40 repeats of WDR5 (aa 24–334) and CW domain of ZCWPW2 (aa 21–78) were also subcloned into pET28-MHL vector to generate N-terminally His-tagged fusion protein. The MBT repeats of L3MBTL1 (aa 200–522) and L3MBTL2 (aa 170–625) were subcloned into pET28GST-LIC vector to generate N-terminally GST-His-tagged fusion protein. All the plasmids were generated by ligase independent cloning (Vazyme Biotech, C112 or ABclonal Technology, RK21020). […] The molecular weight of all protein samples was measured by mass spectrometry.
# (§2) For the ITC measurement, the concentrated proteins were diluted into 20 mM Tris-HCl, pH 7.5, 150 mM NaCl (ITC buffer); the lyophilized compounds were dissolved in the same buffer, and the pH value was adjusted by adding 2 M NaOH or 2 M HCl. […] Compound concentrations were calculated from the mass and the volume of the solvent. […]
# SMN_W102F = target: T2, SMN_W102F (Homo sapiens, UniProt Q16637, W102F); test: ITC binding to SMN Tudor mutant W102F; details: Fig. 3d
# T2 construct: SMN (aa 82–147); His (N, cleaved yes); made in house; host or cells: E. coli BL21 (DE3) Codon plus RIL
# Text: as §1, §2
# SMN_Y109A = target: T3, SMN_Y109A (Homo sapiens, UniProt Q16637, Y109A); test: ITC binding to SMN Tudor mutant Y109A; details: Fig. 3d
# T3 construct: SMN (aa 82–147); His (N, cleaved yes); made in house; host or cells: E. coli BL21 (DE3) Codon plus RIL
# Text: as §1, §2
# SMN = target: T4, SMN (Homo sapiens, UniProt Q16637); test: Biotin-Cmpd 1 pulldown from U2OS cell lysates and western blotting, SMN; format: binding; details: U2OS cell lysate, 200 μM biotin-free competitor, 20 μM biotin-Cmpd 1
# T4 construct: endogenous in cells; host or cells: U2OS
# Description: U2OS cells were lysed in RIPA buffer (140 mM NaCl, 10 mM Tris-HCl, pH 7.6, 1% Triton, 0.1% sodium deoxycholate, 1 mM EDTA) containing protease inhibitors (Roche, 05892791001). The cell lysate was incubated with 20 μM biotin-Cmpd 1 overnight at 4 °C, then 30 μL streptavidin beads (Thermo Fisher, 20353) was added and incubated at 4 °C for 1 h. The beads were then washed with RIPA buffer for 3 times, 10 min/time and loading buffer was added and boiled for 5 min for elution. The eluted samples were separated by SDS-PAGE for western blotting (SMN monoclonal antibody, BD Transduction Laboratories, 610646, clone No. 8, dilution of 1:1000; TDRD3 rabbit monoclonal antibody, Cell signaling, 5492, clone No. 5492, dilution of 1:1000; SND1 polyclonal antibody, Bethyl, A302-883A, dilution of 1:2000; RFP polyclonal antibody, Abcam, ab62341, dilution of 1:1000; GFP monoclonal antibody, Santa Cruz Biotechnology, sc-9996, dilution of 1:1000; Streptavidin-Horseradish Peroxidase (HRP), Invitrogen, SA10001, dilution of 1:5000) as previously described[52],[53]. For the competition analysis, 200 μM biotin-free compound 1 or compound 15 was added at the same time when the biotin-Cmpd 1 was incubated with the cell lysates.
# T2 sequence (Q16637 82-147 W102F): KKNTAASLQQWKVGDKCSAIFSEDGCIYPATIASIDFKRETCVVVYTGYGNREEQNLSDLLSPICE
# T1 sequence (Q504Y3 21-78): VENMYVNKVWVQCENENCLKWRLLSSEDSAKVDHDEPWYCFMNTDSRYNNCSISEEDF
# T3 sequence (Q16637 82-147 Y109A): as the sequence (Q16637 82-147 W102F) above, with F21W, Y28A counted along it
# T4 sequence (Q16637 whole entry): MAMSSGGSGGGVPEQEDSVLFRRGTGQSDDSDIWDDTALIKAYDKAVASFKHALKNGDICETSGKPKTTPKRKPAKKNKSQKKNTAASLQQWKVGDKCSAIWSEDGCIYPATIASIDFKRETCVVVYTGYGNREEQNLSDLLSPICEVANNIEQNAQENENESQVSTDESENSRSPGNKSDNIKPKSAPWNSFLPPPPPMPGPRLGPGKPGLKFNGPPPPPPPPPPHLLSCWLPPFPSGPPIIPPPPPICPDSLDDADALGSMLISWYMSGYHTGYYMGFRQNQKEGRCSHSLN
smiles,measurement,setting,value
"Cn1c2c(c(=N)c3c1CCC3)CCC2 [Compound 1, 4-methyl-2,3,4,5,6,7-hexahydrodicyclopenta[b,e]pyridin-8(1H)-imine]",Kd,ZCWPW2 (CW),> 244 µM
same,Kd,SMN_W102F,> 100 µM
same,Kd,SMN_Y109A,15 ± 1 µM
same,competition of the pulldown of SMN by biotin-Cmpd 1,SMN,competed out
